Source: patent US20240301319A1, “PERFUMING COMPOSITIONS” (FIRMNICH SA, priority 2017, published 2024)
Counter-ions that a name gives are not always drawn.

Experiments:
[1] = Volatility of perfuming compounds (Tables 4 to 10), with top/middle/bottom note type; assay type: physicochemical
Summary of the method: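 Volatility is expressed in μg/l in air. Top notes are 70,000 to 100 μg/l, middle notes 99 to 50 μg/l, and bottom notes 49 to 0.1 μg/l. Compounds are grouped by olfactive family: watery, green, fruity, citrus, sweet, gourmand and woody.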

[2] = Odor threshold and odor value of perfuming compounds (Tables 4 to 10)
[3] = Table 4, watery note, top, middle or bottom note
[4] = Table 4, watery note, equals volatility divided by odor threshold
[5] = Table 6, perfuming compounds having a fruity note
[6] = Table 6, perfuming compounds having a fruity note, note type by volatility
[7] = Table 10, perfuming compounds having a woody note, note type by volatility
[8] = Table 8, perfuming compounds having a sweet note
[9] = Table 8, perfuming compounds having a sweet note, note type by volatility
[10] = Table 9, perfuming compounds having a gourmand note, note type by volatility
[11] = note type (Top/Middle/Bottom) by volatility, perfuming compounds having a green note
[12] = perfuming compounds having a green note
[13] = Table 7, citrus note, top, middle or bottom note
[14] = Table 7, citrus note, equals volatility divided by odor threshold

Row | Compound | Volatility [1, 5] [μg/l air] | Type [1, 6] | Odor Threshold [2, 5] [μg/l air] | Odor Value [2, 5] | Type [1, 11] | Volatility (μg/l air) [1, 12] [μg/l air] | Odor Threshold (μg/l air) [2, 12] [μg/l air] | also measured
1 | CC/C=C\CC/C=C/C=O [(2E,6Z)-2,6-NONADIENAL″] |  |  |  |  |  |  |  | Volatility (μg/l air) ([1]; Table 4, watery note): 632.43 μg/l air; Type [1, 3]: TOP (perfuming compounds having a volatility ranging from 70,000 to 100 μg/l in air are referred to as “top notes”); Odor Threshold (μg/l air) ([2]; Table 4, watery note): 1.46E−04 μg/l air; Odor Value [2, 4]: 4.34E+06
2 | CC(=O)OC/C=C(/C)CCC=C(C)C [(2Z)-3,7-dimethyl-2,6-octadien-1-yl acetate] | 123.21 | TOP (perfuming compounds having a volatility ranging from 70,000 to 100 μg/l in air are referred to as “top notes”) | 6.02E−02 | 2.05E+03 |  |  |  | Volatility (μg/l air) ([1]; Table 4, watery note): 123.21 μg/l air; Type [1, 3]: TOP (perfuming compounds having a volatility ranging from 70,000 to 100 μg/l in air are referred to as “top notes”); Odor Threshold (μg/l air) ([2]; Table 4, watery note): 6.02E−02 μg/l air; Odor Value [2, 4]: 2.05E+03
3 | CC(=O)/C=C/C1=C(C)CCCC1(C)C [(3E)-4-(2,6,6-trimethyl-1-cyclohexen-1-yl)-3-buten-2-one] |  |  |  |  |  |  |  | Type [1, 7]: Bottom; Volatility ([1]; Table 10, woody note): 35.41 μg/l air; Odor Threshold ([2]; Table 10, woody note): 3.58E−05 μg/l air
4 | CC/C=C\CCOC(=O)C/C=C\CC [(3Z)-3-hexen-1-yl (3Z)-3-hexenoate] | 210.68 | TOP (perfuming compounds having a volatility ranging from 70,000 to 100 μg/l in air are referred to as “top notes”) |  |  | Top | 210.68 | 5.17E−02 | Volatility [1, 8]: 210.68 μg/l air; Type [1, 9]: Top; Volatility ([1]; Table 9, gourmand note): 210.68 μg/l air; Type [1, 10]: Top; Odor Threshold [2, 8]: 5.17E−02 μg/l air; Odor Value [2, 8]: 4.08E+03; Odor Threshold ([2]; Table 9, gourmand note): 5.17E−02 μg/l air
5 | CC/C=C\CCOC(=O)c1ccccc1 [(3Z)-3-hexen-1-yl benzoate] | 11.05 | Bottom | 4.37E−02 | 2.53E+02 | Bottom | 11.05 | 4.37E−02 | Volatility (μg/l air) ([1]; Table 7, citrus note): 11.05 μg/l air; Type [1, 13]: Bottom; Odor Threshold (μg/l air) ([2]; Table 7, citrus note): 4.37E−02 μg/l air; Odor Value [2, 14]: 2.53E+02
6 | CC/C=C\CCOC(=O)CCC [(3Z)-3-hexen-1-yl butyrate] | 1674.15 | TOP (perfuming compounds having a volatility ranging from 70,000 to 100 μg/l in air are referred to as “top notes”) |  |  | Top | 1674.15 | 7.85E−02 | 
7 | CC/C=C\CCOC(=O)c1ccccc1O [(3Z)-3-hexen-1-yl salicylate] |  |  |  |  | Bottom | 4.34 | 3.23E−04 | 
8 | CC/C=C\CCOC(=O)OC [(3Z)-hex-3-en-1-yl methyl carbonate] | 1506.33 | TOP (perfuming compounds having a volatility ranging from 70,000 to 100 μg/l in air are referred to as “top notes”) |  |  | Top | 1506.33 | 4.58E−02 | 
9 | O=C1CCCCCCC/C=C/CCCCCCO1 [(10E)-oxacycloheptadec-10-en-2-one] | 0.74 | Bottom | 4.77E−04 | 1.55E+03 |  |  |  | Volatility (μg/l air) ([1]; Table 7, citrus note): 0.74 μg/l air; Type [1, 13]: Bottom; Odor Threshold (μg/l air) ([2]; Table 7, citrus note): 4.77E−04 μg/l air; Odor Value [2, 14]: 1.55E+03
10 | CCC/C=C/CO [(E)-2-HEXEN-1-OL] |  |  |  |  | Top | 3752.17 | 1.29E−01 | 
11 | CCC/C=C/COC(C)=O [(E)-2-HEXENYL ACETATE] | 6062.68 | TOP (perfuming compounds having a volatility ranging from 70,000 to 100 μg/l in air are referred to as “top notes”) |  |  | Top | 6062.68 | 2.08E−01 | 
12 | C/C=C/c1ccc(OC(C)=O)c(OC)c1 [(E)-2-METHOXY-4-(1-PROPENYL)PHENYL ACETATE] | 1.85 | Bottom | 4.08E−07 | 4.54E+06 |  |  |  | Volatility (μg/l air) ([1]; Table 7, citrus note): 1.85 μg/l air; Type [1, 13]: Bottom; Odor Threshold (μg/l air) ([2]; Table 7, citrus note): 4.08E−07 μg/l air; Odor Value [2, 14]: 4.54E+06
13 | CCCCC/C(C=O)=C\c1ccccc1 [(E)-2-PENTYL-3-PHENYL-2-PROPENAL] | 0.68 | Bottom | 3.64E−04 | 1.87E+03 |  |  |  | Volatility (μg/l air) ([1]; Table 7, citrus note): 0.68 μg/l air; Type [1, 13]: Bottom; Odor Threshold (μg/l air) ([2]; Table 7, citrus note): 3.64E−04 μg/l air; Odor Value [2, 14]: 1.87E+03
14 | CC(=O)OC/C=C(\C)CCC=C(C)C [(E)-3,7-DIMETHYL-2,6-OCTADIENYL ACETATE] |  | Middle | 3.57E−02 |  | Middle | 79.23 | 3.57E−02 | 
15 | O=C/C=C/c1ccccc1 [(E)-3-PHENYL-2-PROPENAL] |  |  |  |  |  |  |  | Type [1, 7]: Middle; Volatility ([1]; Table 10, woody note): 70.14 μg/l air; Odor Threshold ([2]; Table 10, woody note): 1.36E−03 μg/l air
16 | CC(=O)OC/C=C/c1ccccc1 [(E)-3-PHENYL-2-PROPENYL ACETATE] | 20.47 | Bottom | 1.87E−04 | 1.10E+05 |  |  |  | 
17 | CCC(=O)OC/C=C/c1ccccc1 [(E)-3-PHENYL-2-PROPENYL PROPANOATE] | 8.14 | Bottom | 1.28E−04 | 6.35E+04 |  |  |  | 
18 | CCCCC/C=C/CCC=O [(E)-4-DECENAL] |  |  |  |  |  |  |  | Volatility (μg/l air) ([1]; Table 7, citrus note): 691.34 μg/l air; Type [1, 13]: Top; Odor Threshold (μg/l air) ([2]; Table 7, citrus note): 7.59E−05 μg/l air; Odor Value [2, 14]: 9.11E+06
19 | CCOCOC1CCCCCCCCCCC1 [(ETHOXYMETHOXY)CYCLODODECANE] |  |  |  |  |  |  |  | Type [1, 7]: Bottom; Volatility ([1]; Table 10, woody note): 6.63 μg/l air; Odor Threshold ([2]; Table 10, woody note): 8.90E−02 μg/l air
20 | CC/C=C\CCO [(Z)-3-HEXEN-1-OL] |  |  |  |  | Top | 5986.62 | 1.13E−02 | 
21 | CC/C=C\CCOC(C)=O [(Z)-3-HEXENYL ACETATE] |  |  |  |  | Top | 3398.34 | 1.00E−02 | 
22 | CC/C=C\CCOC=O [(Z)-3-HEXENYL FORMATE] | 9873.53 | TOP (perfuming compounds having a volatility ranging from 70,000 to 100 μg/l in air are referred to as “top notes”) |  |  | Top | 9873.53 | 2.11E−03 | 
23 | CC/C=C\CCOC(=O)C(C)C [(Z)-3-HEXENYL ISOBUTYRATE] | 1073.97 | TOP (perfuming compounds having a volatility ranging from 70,000 to 100 μg/l in air are referred to as “top notes”) |  |  | Top | 1073.97 | 4.54E−02 | 
24 | CCCCC/C=C\CCC=O [(Z)-4-DECENAL] |  |  |  |  | Top | 629.54 | 3.78E−05 | 
25 | CC/C=C\CCCCC=O [(Z)-6-NONENAL] |  |  |  |  | Top | 2431.73 | 2.91E−05 | 
26 | CCCOC(=O)[C@H](C)OC(C)(C)CC [(−)-PROPYL (S)-2-(1,1-DIMETHYLPROPOXY)PROPANOATE] |  |  |  |  |  |  |  | Volatility (μg/l air) ([1]; Table 7, citrus note): 995.16 μg/l air; Type [1, 13]: Top; Odor Threshold (μg/l air) ([2]; Table 7, citrus note): 4.98E−01 μg/l air; Odor Value [2, 14]: 2.00E+03
27 | C=CCOC(=O)CCC1CCCCC1 [ALLYL 3-CYCLOHEXYLPROPANOATE] | 75.80 | Middle | 7.96E−03 | 9.53E+03 | Middle | 75.80 | 7.96E−03 | Volatility [1, 8]: 75.80 μg/l air; Type [1, 9]: Middle; Volatility ([1]; Table 9, gourmand note): 75.80 μg/l air; Type [1, 10]: Middle; Odor Threshold [2, 8]: 7.96E−03 μg/l air; Odor Value [2, 8]: 9.53E+03; Odor Threshold ([2]; Table 9, gourmand note): 7.96E−03 μg/l air
28 | C=CCOC(=O)COC1CCCCC1 [ALLYL (CYCLOHEXYLOXY)ACETATE] | 47.01 | Bottom | 4.66E−05 | 1.01E+06 | Bottom | 47.01 | 4.66E−05 | 
29 | C=CCOC(=O)CCCCCC [ALLYL HEPTANOATE] | 1235.24 | TOP (perfuming compounds having a volatility ranging from 70,000 to 100 μg/l in air are referred to as “top notes”) |  |  | Top | 1235.24 | 1.75E−02 | Volatility [1, 8]: 1235.24 μg/l air; Type [1, 9]: Top; Volatility ([1]; Table 9, gourmand note): 1235.24 μg/l air; Type [1, 10]: Top; Odor Threshold [2, 8]: 1.75E−02 μg/l air; Odor Value [2, 8]: 7.06E+04; Odor Threshold ([2]; Table 9, gourmand note): 1.75E−02 μg/l air
